From US20100234306A1, “USE OF A PEPTIDE AS A THERAPEUTIC AGENT” (priority 2007, published 2010)
Where no end group is shown, it is not given here.

Tests used:
CEM-SS cells = experiment: Cytotoxicity (MTS cell viability) in the HIV-1 assay; conditions: MTS, peptide 10 micrograms per ml
HIV-1IIIB = experiment: HIV-1 antiviral CPE assay in CEM-SS cells (MTS); conditions: 6 days post-infection, peptide 10 micrograms per ml
MRSA = conditions: Mueller-Hinton Broth, read visually, peptide 10 micrograms per ml
[1] = Cytotoxicity (MTS cell viability) in the HIV-1 assay; conditions: human, CEM-SS cells
[2] = Cytotoxicity testing in MRC-5 cells (CellTiter 96); type: cell-based; conditions: human, MRC-5 cells (embryonal lung fibroblasts), 6 days incubation, read-out: % Cell viability
Protocol: For cytotxicity testing, MRC-5 cells were seeded at 2,500 cells/well in 96 well plates using growth medium. […] The following day, peptide was added and tested in duplicates. After a 6 days incubation period, cell viability was measured using CellTiter 96 Solution (Promega). Plates were incubated for additional 4 hours at 37° C.

Pseudomonas aeruginosa = Pseudomonas aeruginosa growth inhibition assay; type: cell-based; conditions: Mueller-Hinton Broth, read visually, peptide 10 micrograms per ml
Streptococcus pneumoniae = Streptococcus pneumoniae growth inhibition assay; type: cell-based; conditions: Mueller-Hinton Broth, read visually, peptide 10 micrograms per ml
in vitro = conditions: human

Compound	% Cell viability (CEM-SS cells) [%]	% CPE reduction in HIV-1 infected CEM-SS cells (HIV-1IIIB) [%]	% inhibition (MRSA) [%]	viability at 10 micrograms per ml [1] [%]	viability at 144 h [2] [%]	% inhibition (Pseudomonas aeruginosa) [%]	% inhibition (Streptococcus pneumoniae) [%]	viability at 144 h, 10 micrograms per ml (in vitro) [%]
Cc1cn([C@H]2C[C@H](N=[N+]=[N-])[C@@H](CO)O2)c(=O)[nH]c1=O [AZT]	97	99	–	–	–	–	–	–
CC(C)(C)NC(=O)[C@@H]1CN(Cc2cccnc2)CCN1C[C@@H](O)C[C@@H](Cc1ccccc1)C(=O)N[C@H]1c2ccccc2C[C@H]1O [Indinavir]	93	–	–	–	–	–	–	–
MQMKKVLDS-OH [AIP-1]	–	–	0.0	100	100	0.0	0.0	100
